Entries after “also recorded” stand apart in the source; their conditions may differ.
Assays:
HL-60 cells [1] = assay: Induction of differentiation of HL-60 cells (CD11b expression, flow cytometry); format: cell-based, human; design: reference not given here; conditions: 30 μg/ml; 3 days; CD11b fluorescence
Protocol: HL-60 cells were cultivated in RPMI-1640 medium supplemented with 10% of FCS at 37° C. under 5% CO2, and the cell concentration was adjusted to 5×10^4 cells/ml.
Then, the above-mentioned medium containing 30 μg/ml of each test compound was added to each well of 6-well microplates (Costar), followed by 3 days of incubation at 37° C. under 5% CO2. In a control group, the above medium alone was added and incubation was performed in the same manner. Thereafter, each cultured cell suspension was sampled into an Eppendorf tube and, after staining with 0.2% trypan blue-containing phosphate buffer, viable cells were counted using a hematocytometer.
The above cells were adjusted to 1×10^7 cells/ml. To 100 μl of the cell suspension was added 5 μl of a solution of fluorescein isothiocyanate (FITC)-labeled anti-human CD11b antibody (Mol; Coulter) and the reaction was allowed to proceed on ice in the dark for 30 minutes. Then, cells were washed twice with PBS (phosphate-buffered saline; Nissui Pharmaceutical) containing 0.1% of BSA (bovine serum albumin; Sigma), finally suspended in 500 μl of the BSA-containing PBS and measured for fluorescence intensity by flow cytometry using Profile II (Coulter).

CMK cells = assay: Morphological observation of CMK cells; format: cell-based, human; conditions: 30 μg/ml; 4 days
Protocol: CMK cells, 1×10^5 cells/ml, were incubated in 10% FCS-added RPMI-1640 medium containing Compound 1 for 4 days and observed for the morphology of cells under the phase contrast microscope. A portion of the cell population was taken and a cytospin preparation was prepared and stained with Wright-Giemsa stain for determination of the cell morphology.
Thus, FIGS. 4 and 6 are the phase constrast micrograph and stained map, respectively, of the medium control, and FIGS. 5 and 7 represent the corresponding figures for cells treated with 30 μg/ml of Compound 1.

Reverse transcriptase = assay: Antiretrovirus activity test: reverse transcriptase activity of virus from culture supernatant; format: cell-based, HIV; conditions: for Reverse transcriptase activity (cpm): control 1316
Protocol: Human transformed normal T cells (MT-4) [Nagumo, T. and Hoshino, H., Jpn. J. Cancer Res. 79, 9-11 (1988)] were used to prepare a suspension of 2×10^5 cells/ml in RPMI-1640 medium (Gibco) supplemented 10% FCS (Gibco).
Compound 1 was dissolved in hydrochloric acid, diluted in the same medium as above, neutralized with 2N NaOH and adjusted to concentrations of 1 μg/ml, 10 μg/ml, 30 μg/ml and 100 μg/ml.
The cells prepared in (a) above and the test compound (final concentration: 1 μg/ml, 10 μg/ml, 30 μg/ml or 100 μg/ml) prepared in (b) above were placed in the wells of a 12-well culture plate (Costar). Then, 50 μl/well of HIV suspension was added to infect the cells in each well, followed by 3-day incubation at 37° C. in a 5% carbon dioxide incubator. As a control, the medium without addition of the test compound was used. After completion of incubation, the cell suspension in each well was taken and viable cells were counted.
The cell suspension in each well was then centrifuged (1500 rpm×5 min) and 750 μl of culture supernatant was obtained.
The culture supernatant, 750 μ, obtained above was placed in an Eppendorf tube (1.8 ml) and 4 M NaCl and PEG-6000 (Sigma) were added. The mixture was allowed to react at 0° C. for 2 hours to precipitate the virus and the virus was harvested by centrifugation (15000 rpm×20 min). To this virus pellet were added solution 1 [50% glycerol (Wako Pure Chemical), 25 mM Tris-HCl (pH 7.5), 50 mM KCl 0.025% Triton X-100 (Sigma) and 5 mM DTT (Sigma)] and solution II [0.9% Triton X-100 (Sigma) and 1.5M KCl] for lysis at 0° C. for 30 min. To the resultant 10-μl virus solution were added 5 mg/ml bovine serum albumin (BSA, Sigma), 1 M Tris-HCl, 100 mM DTT (Sigma), 1M KCl, 10 mM Poly A (Sigma), 0.15 mM TTP (Sigma), 200 mM MgCl2, 0.15 mM Oligo(dT) (NEN) and [^3 H]-TTP (NEN) and the mixture was allowed to react at 37° C. for 1 hour. The reaction was then stopped by placing the mixture in ice and the whole amount was spotted on a membrane filter (DE-81 Filter, Whatman) and dried. After drying, the filter was washed three times with 0.5 M Na2 HPO4 and rinsed in ethanol and dried. The radioactivity of [^3 H]-TTP taken into DNA on the membrane was counted with a liquid scintillation counter to determine reverse transcriptase activity (unit, cpm).

MRL/Mp-1 pr/1 pr mice = assay: Therapeutic effect on autoimmune disease in MRL mice; format: in vivo; conditions: 300 mg/kg oral
Text: Groups of five female MRL/Mp-1 pr/1 pr mice (purchased at 7 weeks of age from Charles River Japan, Inc.) were used at the age of 19 weeks.
Mice of the above strain are known to spontaneously develop autoimmune diseases such as human systemic lupus erythematosus (SLE)-like immune complex glomerulonephritis, lymphoma, vasculitis and polyarthritis (Theofilopolos, A. and Dixon, F. J., Adv. Immunology, 37, 269 (1985); Murphy, E. D., Roths, J. B., Autoimmunity and lymphoproliferation, Elsevier North Holland, N.Y., 207-221 (1978); Taniguchi, Y., Gendai Iryo, 21, 131 (1989); Abe, C.).
Mice in both the Compound 1-treated group and the control group (untreated group) were given a mouse diet (Oriental Yeast) and water.
Compound 1 was used as suspended in 0.5% carboxymethytcellulose (CMC, Dai-ichi Kogyo Seiyaku Co., Ltd.) solution.
Compound 1 was administered by oral garage in a dose of 300 mg/kg body weight daily from the age of 19 weeks to the age of 25 weeks according to the 5-day administration and 2-day cessation schedule (Compound 1-treated group).
Mice in the respective groups were examined for changes in urinary protein, lymphoma diameter, vasculitis of the auricle, and loss of hair.

HL-60 cells [2] = assay: Reactivity of HL-60 cells with anti-CD33 monoclonal antibody My9 (flow cytometry); format: cell-based, human; conditions: day 27, control 97
Protocol: The monoclonal antibody My9 (Coulter) capable of specifically reacting with immature granulocytes was dissolved by adding 0.5 ml of distilled water per vial.
HL-60 cells prepared as described above under (1) were cultivated in the same manner as in a). On day 27, the cell concentration was adjusted to 1×10^6 cells/ml and 100 μl of each aliquot was reacted with 10 μl of fluorescein (FITC)-labeled My9, followed by flow cytometry.

**Q.** For `COc1ccc(C(=O)N2CCN(c3ccc4c(c3)CCC(=O)N4)CC2)cc1OC` [Compound 1, 6-[4-(3,4-Dimethoxybenzoyl)-1-piperazinyl]-3,4-dihydrocarbostyril], which “Induction of differentiation promoting effect” value (HL-60 cells [1]) is on record?
**A.** 322

**Q.** And the “Morphology, Wright-Giemsa stained map” value (CMK cells)?
**A.** budding of the cell membrane and lobulation of the nuclei

**Q.** And the “Morphology, phase contrast micrograph” value (CMK cells)?
**A.** fragmentation of cells like in the process of platelet production

**Q.** And the “Reverse transcriptase activity (cpm)” value (Reverse transcriptase; 1 μg/ml)?
**A.** 1423 cpm

**Q.** What about the “Reverse transcriptase activity (cpm)” value (Reverse transcriptase; 10 μg/ml) of the same compound?
**A.** 1494 cpm

**Q.** And the “Inhibition of reverse transcriptase activity (in words)” value (Reverse transcriptase; 30 μg/ml and 100 μg/ml)?
**A.** inhibits reverse transcriptase activity remarkably

**Q.** What about the “Reverse transcriptase activity (cpm)” value (Reverse transcriptase; 30 μg/ml) of the same compound?
**A.** 372 cpm

**Q.** What about the “Reverse transcriptase activity (cpm)” value (Reverse transcriptase; 100 μg/ml) of the same compound?
**A.** 898 cpm

**Q.** And the Urinary protein (MRL/Mp-1 pr/1 pr mice; 19 to 25 weeks of age, vs control)?
**A.** tendency of inhibition of the increase in urinary protein

**Q.** What about the Loss of hair (MRL/Mp-1 pr/1 pr mice; FIG. 8, vs control) of the same compound?
**A.** improvements in vasculitis and loss of hair

**Q.** What about the Vasculitis (MRL/Mp-1 pr/1 pr mice; FIG. 8, vs control) of the same compound?
**A.** improvements in vasculitis

**Q.** What about the “Lymphoma size, diameter” value (MRL/Mp-1 pr/1 pr mice; control 9.0±0.8 mm) of the same compound?
**A.** 7.8±1.3 mm

**Q.** And the “Lymphoma (in words)” value (MRL/Mp-1 pr/1 pr mice; vs control)?
**A.** enlargement of lymphoma was slightly inhibited; also recorded: reduction in lymphoma

**Q.** And the “Positive rate (%), anti-CD33 My9” value (HL-60 cells [2]; 1.0 μg/ml)?
**A.** 90%

**Q.** What about the “Positive rate (%), anti-CD33 My9” value (HL-60 cells [2]; 10 μg/ml) of the same compound?
**A.** 77%
